Experimental data reported in US8372885B2, “Organic compounds and their uses” (Novartis AG, priority 2008, dated 2013).

What follows are compounds tested against T1, P. aeruginosa LpxC (Pseudomonas aeruginosa, UniProt P47205) (assay: biochemical). Conditions: 1 nM P. aeruginosa LpxC, 30 min pre-incubation, 2 μM UDP-3-O-(R-3-hydroxydecanoyl)-GlcNAc, pH 7.5, room temperature; read-out: IC50 (LpxC inhibitory activity).
T1 construct: made in house
T1 sequence (P47205 1-303): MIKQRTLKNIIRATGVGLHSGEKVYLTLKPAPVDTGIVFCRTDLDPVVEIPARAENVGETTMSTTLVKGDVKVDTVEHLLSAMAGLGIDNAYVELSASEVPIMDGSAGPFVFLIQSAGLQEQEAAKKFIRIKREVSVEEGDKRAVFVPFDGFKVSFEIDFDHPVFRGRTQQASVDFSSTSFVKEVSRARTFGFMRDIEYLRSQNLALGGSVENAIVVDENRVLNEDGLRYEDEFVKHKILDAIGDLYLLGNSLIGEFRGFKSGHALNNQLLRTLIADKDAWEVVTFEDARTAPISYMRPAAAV
Source text: The LC-MS/MS method for quantitation of LpxC product was developed using an Agilent 1200 Capillary HPLC system coupled to an Applied Biosystems MDS Sciex 4000QTRAP mass spectrometer. Both instruments are controlled using the Applied Biosystems MDS Sciex Analyst software. LpxC reaction product (UDP-3-O—(R-3-hydroxyacyl)-glucosamine) was produced by hydrolysis of LpxC substrate catalyzed by P. a. LpxC and purified using reversed phase chromatography on a Phenomenex Luna C18(2) 4.6×50 mm column. An LpxC product calibration curve was generated to evaluate the sensitivity and dynamic range of the LC-MS/MS method. Briefly, compounds are pre-incubated with 1 nM P. aeruginosa LpxC for 30 min. at room temperature. Reactions are initiated by the addition of 2 μM UDP-3-O—(R-3-hydroxydecanoyl)-GlcNAc. Reactions are conducted in a 96-well plate with a total volume of 100 μL in each well containing 50 mM Sodium phosphate pH 7.5, 0.005% Trition X-100 for 20 min at room temperature. After quenching with 1.8% HOAc (10 μL of a 20% HOAc added to each well), reaction mixtures are analyzed using the LC-MS/MS method and peak areas are transformed into product concentration using a LpxC product calibration curve. […] For IC50 determinations, peak areas are converted to percent inhibition in Microsoft Excel. Percent inhibition values are plotted vs. log compound concentration using XLfit. Data is fit to the four-parameter logistic equation using the non-linear regression algorithm in XLfit to return the IC50 and hill slope values.

IC50 | SMILES
1 nM | CC(C)(N)[C@H](NC(=O)c1ccc(OC/C=C/C#CCO)cc1)C(=O)NO [Example 72]
6 nM | CC(C)(N)[C@H](NC(=O)c1ccc(OCC#CC2=CCC(N)CC2)cc1)C(=O)NO (stereo partly shown) [Example 75]
0.03 nM | CC(C)(N)[C@H](NC(=O)c1ccc(OCC#CC2=CCC(O)CC2)cc1)C(=O)NO (stereo partly shown) [Example 76]
0.2 nM | CC(C)(N)[C@H](NC(=O)c1ccc(OCC#Cc2cccc(CO)c2)cc1)C(=O)NO [Example 77]
10 nM | CC(C)(N)[C@H](NC(=O)c1ccc(OCC#Cc2cccnc2)cc1)C(=O)NO [Example 78]
1 nM | CC(C)(N)[C@H](NC(=O)c1ccc(OCC#Cc2ccccn2)cc1)C(=O)NO [Example 79]
1 nM | CC(C)(N)[C@H](NC(=O)c1ccc(OCC#Cc2ccccc2)cc1)C(=O)NO [Example 80]

The next lines start with the compound.

SMILES | IC50
CC(C)(N)[C@H](NC(=O)c1ccc(OCC#Cc2ccc3c(c2)CCO3)cc1)C(=O)NO [Example 67] | 540 nM
CC(C)(N)[C@H](NC(=O)c1ccc(OCC#Cc2ccc(O)cc2)cc1)C(=O)NO [Example 68] | 1900 nM
COc1ccc(C#CCOc2ccc(C(=O)N[C@H](C(=O)NO)C(C)(C)N)cc2)cc1 [Example 69] | 413 nM
COc1cccc(C#CCOc2ccc(C(=O)N[C@H](C(=O)NO)C(C)(C)N)cc2)c1 [Example 70] | 2 nM
COCC#C/C=C/COc1ccc(C(=O)N[C@H](C(=O)NO)C(C)(C)N)cc1 [Example 71] | 1 nM
CC#CCOc1ccc(C(=O)N[C@H](C(=O)NO)C(C)(C)N)c(O)c1 [Example 74] | 3 nM
CC(C)(N)[C@H](NC(=O)c1ccc(OCC#CC2CCC2)cc1)C(=O)NO [Example 81] | 0.03 nM
CC(C)(N)[C@H](NC(=O)c1ccc(OCC2CC2)cc1)C(=O)NO [Example 82] | 18 nM
CC(C)(N)[C@H](NC(=O)c1ccc(OCCC2CC2)cc1)C(=O)NO [Example 83] | 8 nM
